Like-named read-outs stand apart in the source and are kept apart here.
How the values were obtained:
EGFR wildtype = EGFR wildtype (Homo sapiens, UniProt P00533); experiment: Biochemical EGFR kinase assay (Lance Ultra TR-FRET), wildtype
In short: (§1)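 In this biochemical assay, phosphorylation after a one-hour room-temperature reaction was detected with europium-labelled anti-phosphopeptide antibody at 2 nM final concentration.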

EGFR L858R/T790M/C797S = EGFR L858R/T790M/C797S (Homo sapiens, UniProt P00533, C797S/L858R/T790M); experiment: Biochemical EGFR kinase assay (Lance Ultra TR-FRET), triple mutant L858R/T790M/C797S
In short: as §1

EGFR L858R/C797S = EGFR L858R/C797S (Homo sapiens, UniProt P00533, C797S/L858R); experiment: Biochemical EGFR kinase assay (Lance Ultra TR-FRET), double mutant L858R/C797S
In short: as §1

EGFR del19/C797S = EGFR del19/C797S (Homo sapiens, UniProt P00533, C797S/DEL746-750); experiment: Biochemical EGFR kinase assay (Lance Ultra TR-FRET), double mutant del19/C797S
In short: as §1

EGFR del19/T790M/C797S = EGFR del19/T790M/C797S (Homo sapiens, UniProt P00533, C797S/DEL746-750/T790M); experiment: Biochemical EGFR kinase assay (Lance Ultra TR-FRET), triple mutant del19/T790M/C797S
In short: as §1

[1] = IC50 WT (nM) 100 μM ATP, 100 μM ATP
[2] = Km ATP, read-out: IC50 WT (nM) Km ATP
[3] = IC50 L858R/T790M/C797S (nM) 100 μM ATP, 100 μM ATP
[4] = Km ATP, read-out: IC50 L858R/T790M/C797S (nM) Km ATP
[5] = IC50 L858R/C797S (nM) 100 μM ATP, 100 μM ATP
[6] = Km ATP, read-out: IC50 L858R/C797S (nM) Km ATP
[7] = IC50 del19/C797S (nM) 100 μM ATP, 100 μM ATP
[8] = Km ATP, read-out: IC50 del19/C797S (nM) Km ATP
[9] = IC50 del19/T790M/C797S (nM) 100 μM ATP, 100 μM ATP
[10] = Km ATP, read-out: IC50 del19/T790M/C797S (nM) Km ATP

Sequence of EGFR del19/C797S (P00533 with tags, fused parts or gaps DEL746-750/C797S): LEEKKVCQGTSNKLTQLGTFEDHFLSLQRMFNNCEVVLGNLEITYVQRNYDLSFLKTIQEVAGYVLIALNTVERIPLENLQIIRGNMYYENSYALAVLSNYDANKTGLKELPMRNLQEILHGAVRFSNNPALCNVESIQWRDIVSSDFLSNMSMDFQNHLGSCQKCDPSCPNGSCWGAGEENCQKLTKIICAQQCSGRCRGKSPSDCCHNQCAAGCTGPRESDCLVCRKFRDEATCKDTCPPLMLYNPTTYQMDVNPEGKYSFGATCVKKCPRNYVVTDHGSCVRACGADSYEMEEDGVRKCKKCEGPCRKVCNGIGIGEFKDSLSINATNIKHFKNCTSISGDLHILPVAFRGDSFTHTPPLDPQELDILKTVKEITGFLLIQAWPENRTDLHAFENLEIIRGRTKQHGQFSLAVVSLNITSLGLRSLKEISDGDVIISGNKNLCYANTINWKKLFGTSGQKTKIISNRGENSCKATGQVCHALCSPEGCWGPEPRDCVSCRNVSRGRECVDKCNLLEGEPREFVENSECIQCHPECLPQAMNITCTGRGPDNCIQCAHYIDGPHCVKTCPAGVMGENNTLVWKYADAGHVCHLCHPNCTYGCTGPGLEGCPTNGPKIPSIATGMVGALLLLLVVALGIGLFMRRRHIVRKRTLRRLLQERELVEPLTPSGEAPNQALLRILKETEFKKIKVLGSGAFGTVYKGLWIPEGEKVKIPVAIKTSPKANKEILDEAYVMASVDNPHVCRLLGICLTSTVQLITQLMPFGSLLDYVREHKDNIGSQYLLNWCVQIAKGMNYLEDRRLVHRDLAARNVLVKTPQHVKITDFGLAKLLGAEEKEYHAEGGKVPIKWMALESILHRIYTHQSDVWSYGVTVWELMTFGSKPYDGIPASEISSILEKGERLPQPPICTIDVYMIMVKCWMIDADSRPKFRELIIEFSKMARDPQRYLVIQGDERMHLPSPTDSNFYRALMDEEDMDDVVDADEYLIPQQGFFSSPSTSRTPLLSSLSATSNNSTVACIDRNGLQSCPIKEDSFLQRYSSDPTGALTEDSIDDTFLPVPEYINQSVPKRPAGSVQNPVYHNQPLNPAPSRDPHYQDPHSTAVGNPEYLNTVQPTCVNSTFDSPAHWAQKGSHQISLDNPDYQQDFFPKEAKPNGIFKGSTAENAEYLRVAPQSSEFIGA
Sequence of EGFR del19/T790M/C797S (P00533 with tags, fused parts or gaps DEL746-750/T790M/C797S): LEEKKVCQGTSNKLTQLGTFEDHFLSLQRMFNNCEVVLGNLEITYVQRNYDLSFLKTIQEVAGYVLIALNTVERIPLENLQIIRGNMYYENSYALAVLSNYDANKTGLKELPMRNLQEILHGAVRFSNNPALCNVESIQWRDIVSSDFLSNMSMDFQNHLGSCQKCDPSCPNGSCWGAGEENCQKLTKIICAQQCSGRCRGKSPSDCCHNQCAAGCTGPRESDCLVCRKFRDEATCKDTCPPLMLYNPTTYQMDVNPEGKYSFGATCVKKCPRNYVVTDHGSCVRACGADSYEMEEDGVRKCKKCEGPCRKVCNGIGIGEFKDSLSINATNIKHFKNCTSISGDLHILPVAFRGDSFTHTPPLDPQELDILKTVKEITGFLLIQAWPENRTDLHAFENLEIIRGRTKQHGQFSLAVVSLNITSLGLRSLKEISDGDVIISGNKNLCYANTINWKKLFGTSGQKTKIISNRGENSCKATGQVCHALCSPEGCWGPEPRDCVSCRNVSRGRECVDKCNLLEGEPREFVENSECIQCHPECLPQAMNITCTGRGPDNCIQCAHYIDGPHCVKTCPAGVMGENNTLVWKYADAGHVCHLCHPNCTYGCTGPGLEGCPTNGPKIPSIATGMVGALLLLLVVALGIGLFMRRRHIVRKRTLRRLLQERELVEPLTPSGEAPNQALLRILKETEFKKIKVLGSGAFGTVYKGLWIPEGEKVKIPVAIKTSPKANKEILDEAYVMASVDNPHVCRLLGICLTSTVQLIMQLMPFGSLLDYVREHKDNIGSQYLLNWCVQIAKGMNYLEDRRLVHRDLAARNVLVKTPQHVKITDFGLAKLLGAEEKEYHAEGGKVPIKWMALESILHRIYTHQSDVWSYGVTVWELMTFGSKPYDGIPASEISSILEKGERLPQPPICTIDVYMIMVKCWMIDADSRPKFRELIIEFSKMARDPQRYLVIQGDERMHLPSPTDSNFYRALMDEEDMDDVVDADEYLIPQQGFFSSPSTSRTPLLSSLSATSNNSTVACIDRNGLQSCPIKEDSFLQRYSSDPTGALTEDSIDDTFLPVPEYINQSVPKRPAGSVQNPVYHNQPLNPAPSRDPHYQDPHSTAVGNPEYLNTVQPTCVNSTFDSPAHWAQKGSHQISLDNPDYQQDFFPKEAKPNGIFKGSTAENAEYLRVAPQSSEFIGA
Sequence of EGFR wildtype (P00533 25-1210): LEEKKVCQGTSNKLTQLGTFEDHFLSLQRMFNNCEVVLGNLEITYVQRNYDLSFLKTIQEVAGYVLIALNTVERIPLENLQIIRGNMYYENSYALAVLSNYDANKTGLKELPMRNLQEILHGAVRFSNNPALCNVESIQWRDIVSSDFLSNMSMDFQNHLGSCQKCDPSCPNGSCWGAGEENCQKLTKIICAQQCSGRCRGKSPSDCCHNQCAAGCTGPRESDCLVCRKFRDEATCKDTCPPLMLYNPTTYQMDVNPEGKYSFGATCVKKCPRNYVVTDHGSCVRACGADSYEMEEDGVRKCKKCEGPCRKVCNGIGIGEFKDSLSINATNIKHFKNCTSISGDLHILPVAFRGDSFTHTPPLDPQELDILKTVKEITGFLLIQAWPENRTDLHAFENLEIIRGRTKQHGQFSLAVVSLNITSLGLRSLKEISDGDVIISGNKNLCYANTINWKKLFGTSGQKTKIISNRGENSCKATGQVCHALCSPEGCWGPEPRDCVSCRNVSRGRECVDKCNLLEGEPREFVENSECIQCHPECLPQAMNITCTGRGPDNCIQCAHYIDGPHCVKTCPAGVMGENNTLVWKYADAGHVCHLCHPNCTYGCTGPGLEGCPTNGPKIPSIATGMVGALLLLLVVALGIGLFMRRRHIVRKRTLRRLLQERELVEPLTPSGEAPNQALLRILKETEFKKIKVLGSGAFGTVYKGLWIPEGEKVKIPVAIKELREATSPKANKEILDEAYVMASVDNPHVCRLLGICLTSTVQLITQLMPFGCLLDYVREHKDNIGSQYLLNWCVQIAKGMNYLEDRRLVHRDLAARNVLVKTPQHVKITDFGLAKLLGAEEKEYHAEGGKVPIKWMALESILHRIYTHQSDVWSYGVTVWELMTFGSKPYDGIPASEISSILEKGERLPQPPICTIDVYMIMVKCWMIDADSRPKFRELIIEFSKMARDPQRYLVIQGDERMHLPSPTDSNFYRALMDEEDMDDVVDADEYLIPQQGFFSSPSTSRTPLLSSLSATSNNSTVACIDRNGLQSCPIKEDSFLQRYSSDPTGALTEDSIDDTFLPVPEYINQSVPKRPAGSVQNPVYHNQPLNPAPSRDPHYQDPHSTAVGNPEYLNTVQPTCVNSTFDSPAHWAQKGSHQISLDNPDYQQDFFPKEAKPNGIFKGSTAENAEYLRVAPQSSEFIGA
Sequence of EGFR L858R/T790M/C797S (P00533 25-1210 T790M/C797S/L858R): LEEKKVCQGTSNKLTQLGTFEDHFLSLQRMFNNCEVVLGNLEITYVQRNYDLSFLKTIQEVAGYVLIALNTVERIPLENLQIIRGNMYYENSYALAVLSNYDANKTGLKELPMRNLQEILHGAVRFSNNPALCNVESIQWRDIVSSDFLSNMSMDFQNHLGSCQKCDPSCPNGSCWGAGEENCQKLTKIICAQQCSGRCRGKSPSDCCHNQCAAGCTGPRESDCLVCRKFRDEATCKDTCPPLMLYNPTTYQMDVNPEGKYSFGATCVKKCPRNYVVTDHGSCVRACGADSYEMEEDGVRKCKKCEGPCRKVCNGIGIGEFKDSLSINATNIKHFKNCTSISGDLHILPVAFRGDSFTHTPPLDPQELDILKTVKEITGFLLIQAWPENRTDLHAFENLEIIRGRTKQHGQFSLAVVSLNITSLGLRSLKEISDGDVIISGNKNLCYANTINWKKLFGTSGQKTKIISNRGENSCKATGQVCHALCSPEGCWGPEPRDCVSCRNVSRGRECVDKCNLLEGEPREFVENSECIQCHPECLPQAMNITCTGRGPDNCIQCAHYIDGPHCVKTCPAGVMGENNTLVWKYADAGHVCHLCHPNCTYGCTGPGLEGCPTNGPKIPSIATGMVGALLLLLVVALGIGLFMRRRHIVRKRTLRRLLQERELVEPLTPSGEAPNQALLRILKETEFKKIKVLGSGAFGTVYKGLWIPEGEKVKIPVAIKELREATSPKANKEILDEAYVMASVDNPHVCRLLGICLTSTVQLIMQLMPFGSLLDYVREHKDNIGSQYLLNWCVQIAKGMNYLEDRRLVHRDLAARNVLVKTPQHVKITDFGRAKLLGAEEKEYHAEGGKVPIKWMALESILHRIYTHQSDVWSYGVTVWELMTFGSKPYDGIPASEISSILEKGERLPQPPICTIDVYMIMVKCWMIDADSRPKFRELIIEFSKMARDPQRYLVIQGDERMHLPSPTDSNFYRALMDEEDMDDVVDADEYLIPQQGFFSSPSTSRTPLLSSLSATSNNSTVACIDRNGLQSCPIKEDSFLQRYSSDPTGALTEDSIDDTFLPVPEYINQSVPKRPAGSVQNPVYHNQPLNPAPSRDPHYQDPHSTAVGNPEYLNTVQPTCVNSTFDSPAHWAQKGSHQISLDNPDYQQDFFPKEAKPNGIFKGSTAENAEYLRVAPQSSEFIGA

| SMILES | IC50 (EGFR wildtype; [1]) | IC50 (EGFR wildtype; [2]) | IC50 (EGFR L858R/T790M/C797S; [3]) | IC50 (EGFR L858R/T790M/C797S; [4]) | IC50 (EGFR L858R/C797S; [5]) | IC50 (EGFR L858R/C797S; [6]) | IC50 (EGFR del19/C797S; [7]) | IC50 (EGFR del19/C797S; [8]) | IC50 (EGFR del19/T790M/C797S; [9]) | IC50 (EGFR del19/T790M/C797S; [10]) |
| --- | --- | --- | --- | --- | --- | --- | --- | --- | --- | --- |
| O=S(=O)(C1CC1)n1cc(-c2nccc(Nc3cc(N[C@H]4CC[C@@H](CO)CC4)c(-c4ccc(N5CCCC5)cn4)cn3)n2)cn1 [Example 81, ((1s,4s)-4-((6′-((2-(1-(Cyclopropylsulfonyl)-1H-pyrazol-4-yl)pyrimidin-4-yl)amino)-5-(pyrrolidin-1-yl)-[2,3′-bipyridin]-4′-yl)amino)cyclohexyl)methanol] | 3650 nM | 11.7 nM | 6 nM | 2 nM | 13 nM | 3.3 nM | 19 nM | 4 nM | 3.1 nM | 2.4 nM |
| CC(C)(O)[C@H]1CC[C@@H](Nc2cc(Nc3ccnc(-c4cnn(S(=O)(=O)C5CC5)c4)n3)ncc2-c2ccc(N3CCCC3)cn2)CC1 [Example 82, 2-((1s,4s)-4-((6′-((2-(1-(Cyclopropylsulfonyl)-1H-pyrazol-4-yl)pyrimidin-4-yl)amino)-5-(pyrrolidin-1-yl)-[2,3′-bipyridin]-4′-yl)amino)cyclohexyl)propan-2-ol] | > 10000 nM | 29.6 nM | 15.4 nM | 2.8 nM | 73.3 nM | 7.8 nM | 13.3 nM | 7.9 nM | 10.5 nM | 6.5 nM |
| CN1CCN(c2ccc(-c3cnc(Nc4ccnc(-c5cnn(S(=O)(=O)C6CC6)c5)n4)cc3N[C@H]3CC[C@@](C)(O)CC3)nc2)CC1 [Example 83, (1s,4s)-4-((6′-((2-(1-(Cyclopropylsulfonyl)-1H-pyrazol-4-yl)pyrimidin-4-yl)amino)-5-(4-methylpiperazin-1-yl)-[2,3′-bipyridin]-4′-yl)amino)-1-methylcyclohexan-1-ol] | 24.9 nM | 0.2 nM | 0.3 nM | 0.2 nM | 0.4 nM | 0.1 nM | 0.2 nM | 0.2 nM | 0.6 nM | 0.7 nM |
| CN1CCN(c2ccc(-c3cnc(Nc4ccnc(-c5cnn(S(=O)(=O)C6CC6)c5)n4)cc3N[C@H]3CC[C@@H](C(C)(C)O)CC3)nc2)CC1 [Example 84, 2-((1s,4s)-4-((6′-((2-(1-(Cyclopropylsulfonyl)-1H-pyrazol-4-yl)pyrimidin-4-yl)amino)-5-(4-methylpiperazin-1-yl)-[2,3′-bipyridin]-4′-yl)amino)cyclohexyl)propan-2-ol] | 181 nM | 0.6 nM | 0.5 nM | 0.3 nM | 0.5 nM | 0.2 nM | 0.6 nM | 0.4 nM | 0.7 nM | 0.9 nM |
| CN1CCN(c2ccc(-c3cnc(Nc4ccnc(-c5cnn(S(=O)(=O)C6CC6)c5)n4)cc3N[C@H]3CC[C@@H](CO)CC3)nc2)CC1 [Example 85, ((1s,4s)-4-((6′-((2-(1-(cyclopropylsulfonyl)-1H-pyrazol-4-yl)pyrimidin-4-yl)amino)-5-(4-methylpiperazin-1-yl)-[2,3′-bipyridin]-4′-yl)amino)cyclohexyl)methanol] | 31.7 nM | 0.2 nM | 0.3 nM | 0.1 nM | 0.2 nM | 0.1 nM | 0.3 nM | 0.1 nM | 0.4 nM | 0.4 nM |
| CC(C)(O)c1ccc(-c2cnc(Nc3ccnc(-c4cnn(S(=O)(=O)C5CC5)c4)n3)cc2N[C@H]2CC[C@@](C)(O)CC2)nn1 [Example 86, (1s,4s)-4-((2-((2-(1-(Cyclopropylsulfonyl)-1H-pyrazol-4-yl)pyrimidin-4-yl)amino)-5-(6-(2-hydroxypropan-2-yl)pyridazin-3-yl)pyridin-4-yl)amino)-1-methylcyclohexan-1-ol] | 1480 nM | 3.6 nM | 0.2 nM | 0.1 nM | 11.4 nM | 0.4 nM | 0.4 nM | 0.3 nM | 1.6 nM | 0.2 nM |
| CC(C)(O)c1ccc(-c2cnc(Nc3ccnc(-c4cnn(S(=O)(=O)C5CC5)c4)n3)cc2N[C@H]2CC[C@@H](CO)CC2)nn1 [Example 87, 2-(6-(6-((2-(1-(Cyclopropylsulfonyl)-1H-pyrazol-4-yl)pyrimidin-4-yl)amino)-4-(((1s,4s)-4-(hydroxymethyl)cyclohexyl)amino)pyridin-3-yl)pyridazin-3-yl)propan-2-ol] | 992 nM | 2.2 nM | 0.1 nM | 0.1 nM | 4.7 nM | 0.6 nM | 0.5 nM | 0.4 nM | 5.9 nM | 0.1 nM |
| CC(C)(O)c1ccc(-c2cnc(Nc3ccnc(-c4cnn(S(=O)(=O)C5CC5)c4)n3)cc2N[C@H]2CC[C@@H](C(C)(C)O)CC2)nn1 [Example 88, 2-(6-(6-((2-(1-(Cyclopropylsulfonyl)-1H-pyrazol-4-yl)pyrimidin-4-yl)amino)-4-(((1s,4s)-4-(2-hydroxypropan-2-yl)cyclohexyl)amino)pyridin-3-yl)pyridazin-3-yl)propan-2-ol] | > 10000 nM | 15.3 nM | 0.4 nM | 0.1 nM | 31.1 nM | – | 2.2 nM | – | 4.9 nM | 0.4 nM |
| CN(C)C[C@H]1CC[C@@H](Nc2cc(Nc3ccnc(-c4cnn(S(=O)(=O)C5CC5)c4)n3)ncc2-c2ccc(C(C)(C)O)nn2)CC1 [Example 89, 2-(6-(6-((2-(1-(Cyclopropylsulfonyl)-1H-pyrazol-4-yl)pyrimidin-4-yl)amino)-4-(((1s,4s)-4-((dimethylamino)methyl)cyclohexyl)amino)pyridin-3-yl)pyridazin-3-yl)propan-2-ol] | 1640 nM | 2.7 nM | 0.1 nM | 0.1 nM | 3.9 nM | 0.2 nM | 0.1 nM | 0.3 nM | 0.1 nM | 0.1 nM |
| COC1CN(c2ccc(-c3cnc(Nc4ccnc(-c5cnn(S(=O)(=O)C6CC6)c5)n4)cc3N[C@H]3CC[C@@](C)(O)CC3)nc2)C1 [Example 90, (1s,4s)-4-((6′-((2-(1-(Cyclopropylsulfonyl)-1H-pyrazol-4-yl)pyrimidin-4-yl)amino)-5-(3-methoxyazetidin-1-yl)-[2,3′-bipyridin]-4′-yl)amino)-1-methylcyclohexan-1-ol] | 406 nM | 0.4 nM | 0.4 nM | 0.3 nM | 15.1 nM | 0.4 nM | 0.9 nM | 0.4 nM | 0.4 nM | 0.6 nM |
| COC1CN(c2ccc(-c3cnc(Nc4ccnc(-c5cnn(S(=O)(=O)C6CC6)c5)n4)cc3N[C@H]3CC[C@@H](CO)CC3)nc2)C1 [Example 91, ((1s,4s)-4-((6′-((2-(1-(Cyclopropylsulfonyl)-1H-pyrazol-4-yl)pyrimidin-4-yl)amino)-5-(3-methoxyazetidin-1-yl)-[2,3′-bipyridin]-4′-yl)amino)cyclohexyl)methanol] | > 10000 nM | 2.5 nM | 1.1 nM | 0.9 nM | 9.7 nM | 0.8 nM | 2.8 nM | 0.9 nM | 1.3 nM | 0.5 nM |
| COC1CN(c2ccc(-c3cnc(Nc4ccnc(-c5cnn(S(=O)(=O)C6CC6)c5)n4)cc3N[C@H]3CC[C@@H](C(C)(C)O)CC3)nc2)C1 [Example 92, 2-((1s,4s)-4-((6′-((2-(1-(Cyclopropylsulfonyl)-1H-pyrazol-4-yl)pyrimidin-4-yl)amino)-5-(3-methoxyazetidin-1-yl)-[2,3′-bipyridin]-4′-yl)amino)cyclohexyl)propan-2-ol] | 172 nM | 0.1 nM | 2.3 nM | 1.4 nM | 78.8 nM | 4.7 nM | 7.2 nM | 4.4 nM | 1.6 nM | 1 nM |
| COC1CN(c2ccc(-c3cnc(Nc4ccnc(-c5cnn(S(=O)(=O)C6CC6)c5)n4)cc3N[C@H]3CC[C@@H](CN(C)C)CC3)nc2)C1 [Example 93, N^6′-(2-(1-(Cyclopropylsulfonyl)-1H-pyrazol-4-yl)pyrimidin-4-yl)-N^4′-((1s,4s)-4-((dimethylamino)methyl)cyclohexyl)-5-(3-methoxyazetidin-1-yl)-[2,3′-bipyridine]-4′,6′-diamine] | 172 nM | 0.1 nM | 0.3 nM | 0.1 nM | 2.2 nM | 0.3 nM | 0.5 nM | 0.2 nM | 0.4 nM | 0.3 nM |
| O=S(=O)(C1CC1)n1cc(-c2nccc(Nc3cc(N[C@H]4CC[C@@H](CCO)CC4)c(-c4ccc(C(F)F)cn4)cn3)n2)cn1 [Example 94, 2-((1s,4s)-4-((6′-((2-(1-(Cyclopropylsulfonyl)-1H-pyrazol-4-yl)pyrimidin-4-yl)amino)-5-(difluoromethyl)-[2,3′-bipyridin]-4′-yl)amino)cyclohexyl)ethan-1-ol] | > 10000 nM | 7.2 nM | – | 0.9 nM | 170 nM | 6 nM | 13.3 nM | 3.9 nM | 4.4 nM | 2.7 nM |

From US12258328B2, “6-membered heteroaryl-containing aminopyridine compounds as EGFR inhibitors” (YUHAN CORPORATION, priority 2021, dated 2025)
